US6660774B2, “Use of (+)-tramadol, O-demethyltramadol or (+)-O-demethyl-tramadol, O-desmethyl-N-mono-desmethyl-tramadol or (+)- O-desmethyl-N-mono-desmethyltramadol” (Gruenethal GmbH, priority 1999, dated 2003)

System: virgin, female Sprague-Dawley rats (bladder function)
Experiment: Cystometric testing on conscious, virgin rats
Type: in vivo, rat
[1] = 0.1 mg/kg i.v., Diff.: change relative to the initial value
[2] = 0.1 mg/kg i.v., h: after administration, at maximum action
[3] = 0.1 mg/kg i.v., v: before administration (initial value)
[4] = 0.5 mg/kg i.v., Diff.: change relative to the initial value
[5] = 0.5 mg/kg i.v., h: after administration, at maximum action
[6] = 0.5 mg/kg i.v., v: before administration (initial value)
[7] = 10.0 μg/kg i.t., Diff.: change relative to the initial value
[8] = 10.0 μg/kg i.t., h: after administration, at maximum action
[9] = 10.0 μg/kg i.t., v: before administration (initial value)
[10] = 10.0 mg/kg i.v., Diff.: change relative to the initial value
[11] = 10.0 mg/kg i.v., h: after administration, at maximum action
[12] = 10.0 mg/kg i.v., v: before administration (initial value)
[13] = 5.0 mg/kg i.v., Diff.: change relative to the initial value
[14] = 5.0 mg/kg i.v., h: after administration, at maximum action
[15] = 5.0 mg/kg i.v., v: before administration (initial value)
[16] = 0.3 mg/kg i.v., Diff.: change relative to the initial value
[17] = 0.3 mg/kg i.v., h: after administration, at maximum action
[18] = 0.3 mg/kg i.v., v: before administration (initial value)

Molecule: (+)-O-desmethyltramadol [(+)-M1]
- Basal pressure [1]: Diff.: +7%
- Bladder capacity [1]: Diff.: +31%
- Inter-contraction interval [1]: Diff.: +31%
- Micturition pressure [1]: Diff.: −22%
- Micturition volume [1]: Diff.: +48%
- Residual volume [1]: Diff.: −73%
- Threshold pressure [1]: Diff.: +32%
- Basal pressure [2]: h: 3.87 ± 0.43 cm H2O
- Bladder capacity [2]: h: 0.98 ± 0.06 ml
- Inter-contraction interval [2]: 5.51 ± 0.52 min
- Micturition pressure [2]: h: 70 ± 11 cm H2O
- Micturition volume [2]: h: 0.95 ± 0.09 ml
- Residual volume [2]: h: 0.03 ± 0.02 ml
- Threshold pressure [2]: h: 8.07 ± 0.97 cm H2O
- Basal pressure [3]: v: 3.62 ± 0.24 cm H2O
- Bladder capacity [3]: v: 0.75 ± 0.08 ml
- Inter-contraction interval [3]: 4.20 ± 0.55 min
- Micturition pressure [3]: v: 90 ± 12 cm H2O
- Micturition volume [3]: v: 0.64 ± 0.10 ml
- Residual volume [3]: v: 0.11 ± 0.02 ml
- Threshold pressure [3]: v: 6.12 ± 0.51 cm H2O
- Basal pressure [4]: Diff.: +25%
- Bladder capacity [4]: Diff.: +44%
- Inter-contraction interval [4]: Diff.: +46%
- Micturition pressure [4]: Diff.: −30%
- Micturition volume [4]: Diff.: +51%
- Residual volume [4]: Diff.: −33%
- Threshold pressure [4]: Diff.: +106%
- Basal pressure [5]: h: 4.90 ± 0.55 cm H2O
- Bladder capacity [5]: h: 1.35 ± 0.11 ml
- Inter-contraction interval [5]: 7.63 ± 0.60 min
- Micturition pressure [5]: h: 66 ± 10 cm H2O
- Micturition volume [5]: h: 1.28 ± 0.09 ml
- Residual volume [5]: h: 0.06 ± 0.02 ml
- Threshold pressure [5]: h: 15.34 ± 1.16 cm H2O
- Basal pressure [6]: v: 3.91 ± 0.31 cm H2O
- Bladder capacity [6]: v: 0.94 ± 0.08 ml
- Inter-contraction interval [6]: 5.23 ± 0.45 min
- Micturition pressure [6]: v: 94 ± 10 cm H2O
- Micturition volume [6]: v: 0.85 ± 0.08 ml
- Residual volume [6]: v: 0.09 ± 0.02 ml
- Threshold pressure [6]: v: 7.44 ± 1.10 cm H2O
- bladder capacity (in words) (0.1 and 0.5 mg/kg i.v.): increased
- interval between micturition (in words) (0.1 and 0.5 mg/kg i.v.): extended
- threshold pressure (in words) (0.1 and, in particular, 0.5 mg/kg i.v.): distinct rise

Molecule: CNCC1CCCCC1(O)c1cccc(O)c1 (single isomer, unassigned; (+)) [(+)-M5, (+)-O-desmethyl-N-mono-desmethyltramadol]
- Basal pressure [7]: Diff.: −9%
- Bladder capacity [7]: Diff.: +61%
- Inter-contraction interval [7]: Diff.: +38%
- Micturition pressure [7]: Diff.: −46%
- Micturition volume [7]: Diff.: +36%
- Residual volume [7]: Diff.: +162%
- Threshold pressure [7]: Diff.: +46%
- Basal pressure [8]: h: 4.25 ± 0.33 cm H2O
- Bladder capacity [8]: h: 1.06 ± 0.06 ml
- Inter-contraction interval [8]: h: 5.22 ± 0.27 min
- Micturition pressure [8]: h: 43 ± 6 cm H2O
- Micturition volume [8]: h: 0.72 ± 0.04 ml
- Residual volume [8]: h: 0.34 ± 0.04 ml
- Threshold pressure [8]: h: 10.25 ± 1.01 cm H2O
- Basal pressure [9]: v: 4.68 ± 0.74 cm H2O
- Bladder capacity [9]: v: 0.66 ± 0.05 ml
- Inter-contraction interval [9]: v: 3.78 ± 0.35 min
- Micturition pressure [9]: v: 80 ± 9 cm H2O
- Micturition volume [9]: v: 0.53 ± 0.06 ml
- Residual volume [9]: v: 0.13 ± 0.01 ml
- Threshold pressure [9]: v: 7.0 ± 0.93 cm H2O
- threshold pressure (in words) (10 mg/kg i.v.): distinct rise
- interval between micturition (in words) (10.0 mg/kg i.v.): not shortened
- Basal pressure [10]: Diff.: +4%
- Bladder capacity [10]: Diff.: −18%
- Inter-contraction interval [10]: Diff.: −12%
- Micturition pressure [10]: Diff.: −23%
- Micturition volume [10]: Diff.: +9%
- Residual volume [10]: Diff.: −88%
- Threshold pressure [10]: Diff.: +69%
- Basal pressure [11]: h: 3.95 ± 0.35 cm H2O
- Bladder capacity [11]: h: 0.72 ± 0.08 ml
- Inter-contraction interval [11]: h: 4.30 ± 0.47 min
- Micturition pressure [11]: h: 41 ± 3 cm H2O
- Micturition volume [11]: h: 0.86 ± 0.10 ml
- Residual volume [11]: h: 0.01 ± 0.002 ml
- Threshold pressure [11]: h: 12.08 ± 1.47 cm H2O
- Basal pressure [12]: v: 3.78 ± 0.26 cm H2O
- Bladder capacity [12]: v: 0.88 ± 0.09 ml
- Inter-contraction interval [12]: v: 4.92 ± 0.53 min
- Micturition pressure [12]: v: 53 ± 4 cm H2O
- Micturition volume [12]: v: 0.79 ± 0.09 ml
- Residual volume [12]: v: 0.08 ± 0.01 ml
- Threshold pressure [12]: v: 7.13 ± 0.47 cm H2O
- bladder capacity (in words) (intrathecally): distinct increases
- interval between micturition (in words) (intrathecally): distinct increases
- threshold pressure (in words) (intrathecally): increase

Molecule: COc1cccc(C2(O)CCCCC2CN(C)C)c1 (single isomer, unassigned; (-)) [(−)-Tramadol, (−)-tramadol, reference compound]
- Basal pressure [13]: Diff.: +2%
- Bladder capacity [13]: Diff.: −8%
- Micturition pressure [13]: Diff.: −15%
- Micturition volume [13]: Diff.: −6%
- Residual volume [13]: Diff.: −17%
- Threshold pressure [13]: Diff.: −3%
- Basal pressure [14]: h: 4.20 ± 0.30 cm H2O
- Bladder capacity [14]: h: 1.10 ± 0.09 ml
- Micturition pressure [14]: h: 59 ± 3 cm H2O
- Micturition volume [14]: h: 1.01 ± 0.09 ml
- Residual volume [14]: h: 0.10 ± 0.02 ml
- Threshold pressure [14]: h: 7.10 ± 0.44 cm H2O
- Basal pressure [15]: v: 4.12 ± 0.40 cm H2O
- Bladder capacity [15]: v: 1.19 ± 0.13 ml
- Micturition pressure [15]: v: 69 ± 4 cm H2O
- Micturition volume [15]: v: 1.07 ± 0.13 ml
- Residual volume [15]: v: 0.12 ± 0.01 ml
- Threshold pressure [15]: v: 7.32 ± 2.21 cm H2O

Molecule: COc1cccc([C@@]2(O)CCCC[C@@H]2CN(C)C)c1 [(+)-Tramadol, (+)-tramadol]
- Basal pressure [1]: Diff.: −4%
- Bladder capacity [1]: Diff.: +18%
- Inter-contraction interval [1]: Diff.: +33%
- Micturition pressure [1]: Diff.: −20%
- Micturition volume [1]: Diff.: +7%
- Residual volume [1]: Diff.: 44%
- Threshold pressure [1]: Diff.: +48%
- Basal pressure [2]: h: 3.85 ± 0.46 cm H2O
- Bladder capacity [2]: h: 1.07 ± 0.13 ml
- Inter-contraction interval [2]: h: 7.13 ± 0.85 min
- Micturition pressure [2]: h: 55 ± 8 cm H2O
- Micturition volume [2]: h: 0.80 ± 0.09 ml
- Residual volume [2]: h: 0.23 ± 0.07 ml
- Threshold pressure [2]: h: 11.63 ± 1.05 cm H2O
- Basal pressure [3]: v: 4.01 ± 0.57 cm H2O
- Bladder capacity [3]: v: 0.91 ± 0.11 ml
- Inter-contraction interval [3]: v: 5.35 ± 0.63 min
- Micturition pressure [3]: v: 69 ± 11 cm H2O
- Micturition volume [3]: v: 0.75 ± 0.12 ml
- Residual volume [3]: v: 0.16 ± 0.01 ml
- Threshold pressure [3]: v: 7.87 ± 1.51 cm H2O
- Basal pressure [16]: Diff.: +10%
- Bladder capacity [16]: Diff.: +39%
- Inter-contraction interval [16]: Diff.: +19%
- Micturition pressure [16]: Diff.: −15%
- Micturition volume [16]: Diff.: +13%
- Residual volume [16]: Diff.: +167%
- Threshold pressure [16]: Diff.: +95%
- Basal pressure [17]: h: 4.95 ± 0.19 cm H2O
- Bladder capacity [17]: h: 1.38 ± 0.14 ml
- Inter-contraction interval [17]: h: 7.21 ± 0.72 min
- Micturition pressure [17]: h: 60 ± 5 cm H2O
- Micturition volume [17]: h: 0.97 ± 0.13 ml
- Residual volume [17]: h: 0.40 ± 0.04 ml
- Threshold pressure [17]: h: 16.01 ± 1.63 cm H2O
- Basal pressure [18]: v: 4.50 ± 0.29 cm H2O
- Bladder capacity [18]: v: 0.99 ± 0.08 ml
- Inter-contraction interval [18]: v: 6.06 ± 0.49 min
- Micturition pressure [18]: v: 71 ± 4 cm H2O
- Micturition volume [18]: v: 0.86 ± 0.07 ml
- Residual volume [18]: v: 0.15 ± 0.01 ml
- Threshold pressure [18]: v: 8.21 ± 0.42 cm H2O
- Basal pressure [4]: Diff.: +13%
- Bladder capacity [4]: Diff.: +18%
- Inter-contraction interval [4]: Diff.: +21%
- Micturition pressure [4]: Diff.: −22%
- Micturition volume [4]: Diff.: +22%
- Residual volume [4]: Diff.: −14%
- Threshold pressure [4]: Diff.: +91%
- Basal pressure [5]: h: 4.70 ± 1.14 cm H2O
- Bladder capacity [5]: h: 1.43 ± 0.11 ml
- Micturition pressure [5]: h: 57 ± 10 cm H2O
- Micturition volume [5]: h: 1.31 ± 0.12 ml
- Residual volume [5]: h: 0.12 ± 0.002 ml
- Threshold pressure [5]: h: 15.0 ± 2.58 cm H2O
- Basal pressure [6]: v: 4.16 ± 0.62 cm H2O
- Bladder capacity [6]: v: 1.21 ± 0.06 ml
- Micturition pressure [6]: v: 73 ± 12 cm H2O
- Micturition volume [6]: v: 1.07 ± 0.06 ml
- Residual volume [6]: v: 0.14 ± 0.03 ml
- Threshold pressure [6]: v: 7.85 ± 1.04 cm H2O
- effect on bladder parameters (in words) (5 mg/kg i.v.): has an effect
- Basal pressure [13]: Diff.: +53%
- Bladder capacity [13]: Diff.: −2%
- Inter-contraction interval [13]: Diff.: +7%
- Micturition pressure [13]: Diff.: −15%
- Micturition volume [13]: Diff.: +46%
- Residual volume [13]: Diff.: −95%
- Threshold pressure [13]: Diff.: +140%
- Basal pressure [14]: h: 6.46 ± 1.13 cm H2O
- Bladder capacity [14]: h: 0.90 ± 0.09 ml
- Micturition pressure [14]: h: 51 ± 7 cm H2O
- Micturition volume [14]: h: 1.18 ± 0.12 ml
- Residual volume [14]: h: 0.006 ± 0.003 ml
- Threshold pressure [14]: h: 19.20 ± 3.02 cm H2O
- Basal pressure [15]: v: 4.23 ± 0.35 cm H2O
- Bladder capacity [15]: v: 0.92 ± 0.08 ml
- Micturition pressure [15]: v: 60 ± 4 cm H2O
- Micturition volume [15]: v: 0.81 ± 0.07 ml
- Residual volume [15]: v: 0.11 ± 0.02 ml
- Threshold pressure [15]: v: 8.0 ± 1.10 cm H2O
- bladder capacity (in words) (rat, in vivo): distinct increase

Molecule: CN(C)CC1CCCCC1(O)c1cccc(O)c1 (stereo not shown) [O-demethyltramadol]
- effect on bladder function (in words) (even at low concentrations): clear effect
